Data: publication PMC5570900, “Exploiting a novel conformational switch to control innate immunity mediated by complement protein C3a” (Nature Communications, 2017)

What was measured:
Format in all cases: cell-based
C3aR [1] = target: T1, C3aR (Homo sapiens, UniProt Q16581); assay: Intracellular Ca2+ release in human monocyte-derived macrophages (agonist mode); set-up: Concentration-dependent Ca^2+ release in human monocyte-derived macrophages (HMDMs); endogenous in cells; host or cells: primary human monocyte-derived macrophages (HMDMs); details: HMDMs, n ≥ 3, ± SEM
T1 sequence (Q16581 1-482): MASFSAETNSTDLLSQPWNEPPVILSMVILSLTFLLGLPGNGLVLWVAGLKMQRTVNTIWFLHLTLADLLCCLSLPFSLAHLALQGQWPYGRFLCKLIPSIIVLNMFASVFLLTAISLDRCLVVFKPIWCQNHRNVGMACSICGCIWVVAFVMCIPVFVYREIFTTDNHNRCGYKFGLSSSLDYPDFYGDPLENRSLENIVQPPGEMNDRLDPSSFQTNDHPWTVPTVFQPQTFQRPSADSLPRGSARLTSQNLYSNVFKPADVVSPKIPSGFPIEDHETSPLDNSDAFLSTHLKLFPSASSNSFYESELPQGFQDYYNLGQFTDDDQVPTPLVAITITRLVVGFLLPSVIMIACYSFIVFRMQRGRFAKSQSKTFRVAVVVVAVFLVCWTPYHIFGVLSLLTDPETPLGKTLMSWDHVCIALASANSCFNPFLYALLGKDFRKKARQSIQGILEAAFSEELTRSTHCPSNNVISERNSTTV
Experimental: (§1) HMDMs were isolated using Ficoll-paque density centrifugation (GE Healthcare Bio-Science, Uppsala, Sweden) from buffy coat (of anonymous human donors) provided by the Australian Red Cross Blood Service, Brisbane. CD14^+ monocytes were positively selected using CD14 MicroBeads (Miltenyi Biotech, Auburn, USA)[40], [41]. CD14^+ monocytes were differentiated to HMDMs using 100 ng/mL of recombinant human macrophage colony-stimulating factor (PeptroTech, Rocky Hill, USA) for 7 days in Iscove’s modified Dulbecco’s media supplemented with 10% fetal bovine serum, penicillin (100 U/mL), streptomycin (100 µg/mL) and L-glutamine (2 mM). HMDMs were supplemented after 5 days with fresh medium containing 10 ng/ml macrophage colony-stimulating factor and collected by gentle scraping on day 7.
(§2) HMDMs were seeded to a 96-well clear-bottom black-wall assay plate at a density of 5 × 10^4 cells per well and allowed to adhere overnight. Prior to assay, cells were incubated with dye-loading buffer (Hank’s balance salt solution (HBSS) buffer, 4 μM Fluo-3 AM, 25 μl Pluronic acid F-127 and 1% fetal bovine serum) for 1 h at 37 °C. Cells were then washed once with assay buffer (HBSS supplemented with 2.5 mM probenecid and 20 mM HEPES, pH 7.4). Intracellular calcium release was monitored using a fluorescence imaging plate reader (excitation 495 nm, emission 520 nm). The percentage responses were plotted against logarithmic concentrations of each test compound[42].

C3aR [2] = target: T1, C3aR; assay: Inhibition of hC3a-induced Ca2+ release in human monocyte-derived macrophages; set-up: Concentration-dependent Ca^2+ release in human monocyte-derived macrophages (HMDMs); endogenous in cells; host or cells: primary human monocyte-derived macrophages (HMDMs); details: HMDMs, hC3a 100 nM, n ≥ 3, ± SEM
Experimental: as §1, §2

C3aR [3] = target: T1, C3aR; assay: Inhibition of hC3a-induced histamine secretion in human LAD2 mast cells (antagonist mode); set-up: Concentration-dependent histamine secretion in human LAD2 mast cells; endogenous in cells; host or cells: LAD2 human mast cells; details: hC3a 100 nM, pre-treated 30 min, n ≥ 3, ± SEM
Experimental: LAD2 human mast cells (kindly provided by Dr Dean Metcalfe, National Institute of Allergy and Infectious Diseases, National Institute of Health) were cultured in StemPro®-34 Serum Free Media (Invitrogen, Australia) supplemented with StemPro®-34 nutrient, 100 U/mL penicillin, 100 μg/mL streptomycin, 2 mM GlutaMAX, and 100 ng/mL human stem cell factor (SCF). Cells were hemi-depleted weekly and were not allowed to grow beyond a density of 0.5 × 10^6/mL. This cell line was authenticated by expression of tryptase and histamine granules. For the histamine assay, 1 × 10^4 cells per well were seeded in StemPro®-34 SFM in 96-well plates for 30 min before any treatments. For agonist studies, the cells were treated with compounds prepared in media for 30 min. For antagonist studies, the cells were pre-treated with compounds prepared in SFM for 30 min before addition of C3aR agonists for another 30 min. Cells were centrifuged (500 g, 5 min, 4 °C) and cell-free supernatants were collected for measuring histamine. Histamine content was measured using the histamine EIA kit according to the manufacturer’s instructions (Abnova, Taiwan). The readings were recorded on a FLUOstar Optima (BMG LabTechnologies, Offenburg, Germany).

| Compound | EC50 (C3aR [1]) [nM] | IC50 (C3aR [2]) [nM] | IC50 (C3aR [3]) [nM] |
| --- | --- | --- | --- |
| Cc1[nH]c(C(c2ccccc2)c2ccccc2)nc1C(=O)N[C@@H](CCCNC(=N)N)C(=O)O [Compound 3] | 22 ± 8 |  |  |
| N=C(N)NCCCC(NC(=O)c1ccc(C(c2ccccc2)c2ccccc2)s1)C(=O)O (stereo not drawn) [Compound 6] |  | 85 ± 40 | 3.5 ± 1.5 |
